Assay results published in US20240300940A1, “Phenothiazinyl Compounds and Uses” (Prosetta Biosciences, Inc., priority 2023, published 2024).

Assays:
E. coli ATCC25922 = experiment: MIC assay, serial dilution; details: for MIC: Escherichia coli, ATCC25922, read-out: Anti-bacterial Activity (E. coli MIC (uM)), E. coli, Table 5
Hennes-20 cells = experiment: Hennes-20 oncology screen; type: cell-based; details: 72 h, alamar Blue
Protocol: To screen compounds for oncology activity Hennes-20 cells were plated at low (500 cells/well) versus high (15,000 cells/well) densities and treated with DMSO (vehicle) or dose-titration of compounds. The rationale for this screen is that an intrinsically toxic compound should kill cells regardless of density, including in Hennes-20 cells. However, a compound that selectively triggers the arrest of proliferation will inhibit cell growth when plated at a low density will appear cytotoxic due to inhibition of cell growth when plated at a low density but will appear non-toxic to cells plated at a high density where the cells are approaching confluence and the readout detected by a cell viability assay is already close to the maximum.
To conduct the Hennes-20 screen, two 96 well plates were seeded with Hennes 20 cells in parallel where one was plated at a density of 500 cells/well and the other was plated at a density of 15,000 cells/well. 90 uL of minimum essential media was added to each well and plates were placed in a 37 degrees Celsius incubator for 24 hours. The next day, 10 ul of media containing dilutions of compound in DMSO were added to each plate. Six wells on each plate received 10 ul of media containing only DMSO. Each well was gently mixed 5 times with a 100 ul pipette. Plates were incubated at 37 degrees Celsius for 72 hours and then 10 uL of alamar Blue was added to each well. Wells were mixed 5 times then incubated at 37 degrees Celsius for […]. Plates were then read at 530/590.
The rationale for the screen is as follows: Hennes-20 cells lack endogenous apoptosis. Cells plated at low density will proliferate and approach confluence in 72 hrs. A drug that arrests proliferation may have its proliferation blocking effect masked by the triggering of endogenous apoptosis. However, in the Hennes line, lacking endogenous apoptosis, such an arrest is manifest as a dose-dependent maintenance at low cell density. Since the high-density cells are plated close to confluence, the difference between Alamar Blue cell survival readings after 72 hrs reflects the ability of the drug to block proliferation in the low density-plated cells. In the high density-plated cells any diminution of Alamar Blue readout vs vehicle control is due to intrinsic toxicity, not proliferation arrest, since cells were already at confluence. Thus, a compound that appears toxic (low Alamar Blue readings after 72 hrs) on the low-density plate, but which appears non-toxic (high Alamar Blue readings after 72 hrs) on the high-density plate, must be arresting proliferation, since intrinsic compound toxicity should be observed at both low and high cell densities, not selectively on the low-density plate.

Structure (SMILES) | MIC (E. coli ATCC25922) [µM] | EC50 (Hennes-20 cells) [nM] | Anti-bacterial Activity (E. coli MIC (uM)) (E. coli ATCC25922; E. coli, Table 5) [µM]
FC1(F)C2CN(c3ccc4nc5ccc(N6CC7C(C6)C7(F)F)cc5[s+]c4c3)CC21 (stereo not shown) [Compound 2] | 1.6 |  | 
c1cc2nc3ccc(N4CC5CC5C4)cc3[s+]c2cc1N1CC2CC2C1 (stereo not shown) [Compound 3] | 1.6 |  | 
CC1(C)C2CN(c3ccc4nc5c(N6CCCC6)cc(N6CC7C(C6)C7(C)C)cc5[s+]c4c3)CC21 (stereo not shown) [Compound 4] | 3.1 | 500 | 
CC1(C)C2CN(c3ccc4nc5c(F)cc(N6CC7C(C6)C7(C)C)cc5[s+]c4c3)CC21 (stereo not shown) [Compound 5] | 6.25 | < 100 | 
CC1(C)C2CN(c3ccc4nc5c(N6CC7C(C6)C7(C)C)cc(N6CC7C(C6)C7(C)C)cc5[s+]c4c3)CC21 (stereo not shown) [Compound 6] | 6.3 | 500 | 
CC1(C)C2CN(c3ccc4nc5cc(CN)c(N6CC7C(C6)C7(C)C)cc5[s+]c4c3)CC21 (stereo not shown) [Compound 7] | 6.3 |  | 
CC(C)(C)OC(=O)NCc1cc2nc3ccc(N4CC5C(C4)C5(C)C)cc3[s+]c2cc1N1CC2C(C1)C2(C)C (stereo not shown) [Compound 8] | 6.3 | < 2500 | 
CC1(C)C2CN(c3ccc4nc5cc(Cl)c(N6CC7C(C6)C7(C)C)cc5[s+]c4c3)CC21 (stereo not shown) [Compound 9] | 12.5 | 500 | 
CCc1cc(N2CC3C(C2)C3(C)C)cc2[s+]c3cc(N4CC5C(C4)C5(C)C)cc(CC)c3nc12 (stereo not shown) [Compound 10] | 6.25 | < 500 | 
Cc1cc(N2CC3C(C2)C3(C)C)cc2[s+]c3cc(N4CC5C(C4)C5(C)C)cc(C)c3nc12 (stereo not shown) [Compound 11] | 6.25 | < 500 | 
CCc1cc(N2CC3C(C2)C3(C)C)cc2[s+]c3cc(N4CC5C(C4)C5(C)C)cc(C)c3nc12 (stereo not shown) [Compound 12] | 6.25 | < 500 | 
CC1(C)C2CN(c3cc(F)c4nc5c(F)cc(N6CC7C(C6)C7(C)C)cc5[s+]c4c3)CC21 (stereo not shown) [Compound 13] | 12.5 | 2500 | 
Cc1cc(N2CC3C(C2)C3(C)C)cc2[s+]c3c(F)c(N4CC5C(C4)C5(C)C)cc(C)c3nc12 (stereo not shown) [Compound 14] | 6.25 | < 500 | 
CC1(C)C2CN(c3ccc4nc5c(Cl)cc(N6CC7C(C6)C7(C)C)cc5[s+]c4c3)CC21 (stereo not shown) [Compound 15] | 12.5 | 2500 | 
c1cc2nc3ccc(N4CCC5(CCC5)C4)cc3[s+]c2cc1N1CCC2(CCC2)C1 [Compound 17] | 3.1 |  | 
c1ccc2c(c1)Sc1ccccc1N2c1ccc2nc3c(N4CCCC4)cc(N4CCCC4)cc3[s+]c2c1 [Compound 19] | 12.5 |  | 
c1cc2nc3c(N4CCCC4)cc(N4CCCC4)cc3[s+]c2cc1N1CCCC1 [Compound 20] | 0.8 | 500 | 
Cc1cc(N2CCCC2)cc2[s+]c3c(F)c(N4CCCC4)cc(C)c3nc12 [Compound 21] | 1.6 | < 500 | 
c1cc2nc3ccc(N4CCCCCC4)cc3[s+]c2cc1N1CCCCCC1 [Compound 22] | 1.6 | < 500 | 
CC1(C)C2CN(c3cc(N4CCCC4)cc4[s+]c5cc(N6CCCC6)ccc5nc34)CC21 (stereo not shown) [Compound 23] | 1.6 | < 500 | 
CC(C)(C)OC(=O)NCc1cc2nc3ccc(N4CCCC4)cc3[s+]c2cc1N1CCCC1 [Compound 24] | 1.6 | < 2500 | 
NCc1cc2nc3ccc(N4CCCC4)cc3[s+]c2cc1N1CCCC1 [Compound 27] | 12.5 |  | 
CC1(C)CCCN1c1ccc2nc3ccc(N4CCCCCC4)cc3[s+]c2c1 [Compound 28] | 12.5 |  | 
CC1(C)C2CN(c3ccc4nc5ccc(N6CCCCCC6)cc5[s+]c4c3)CC21 (stereo not shown) [Compound 30, 3-[6,6-dimethyl-3-azabicyclo[3.1.0]hexan-N-yl]-7-(azepan-1-yl) phenothiazinium iodide] | 0.8 |  | 
CC(C)(C)OC(=O)NC1CCN(c2ccc3nc4ccc(N5CC6C(C5)C6(C)C)cc4[s+]c3c2)C1 (stereo not shown) [Compound 32] | 6.25 |  | 
Cc1cc(N(C)C)cc2[s+]c3cc(N4CCCC4)cc(C)c3nc12 [Compound 33] | 1.6 |  | 
CCc1cccc2[s+]c3cc(N4CCCC4)ccc3nc12 [Compound 37] | 6.3 |  | 

Structure (SMILES) | MIC (E. coli ATCC25922) [µM] | EC50 (Hennes-20 cells) [nM] | Anti-bacterial Activity (E. coli MIC (uM)) (E. coli ATCC25922; E. coli, Table 5) [µM]
CCc1cc(N2CCCC2)cc2[s+]c3cc(N4CCCC4)cc(CC)c3nc12 [Compound 39] | 3.1 |  | 
Cc1cc(N2CCCC2)cc2[s+]c3cc(N4CCCC4)cc(C)c3nc12 [Compound 40] | 1.6 |  | 
Fc1cc(N2CCCC2)cc2[s+]c3cc(N4CCCC4)cc(F)c3nc12 [Compound 44] | 6.3 |  | 
c1ccc(C2CCN(c3ccc4nc5ccc(N6CCC(c7ccccc7)C6)cc5[s+]c4c3)C2)cc1 (stereo not shown) [Compound 47] | 3.1 |  | 
FC(F)(F)C1CCCN1c1ccc2nc3ccc(N4CCCC4C(F)(F)F)cc3[s+]c2c1 (stereo not shown) [Compound 48] | 3.1 |  | 
CC(C)(C)OC(=O)NC1CCN(c2ccc3nc4ccc(N5CCC(NC(=O)OC(C)(C)C)C5)cc4[s+]c3c2)C1 (stereo not shown) [Compound 51] | 6.3 |  | 
CC1(C)CCCN1c1ccc2nc3ccc(N4CCCC4(C)C)cc3[s+]c2c1 [Compound 52] | 12.5 |  | 
FC1CCN(c2ccc3nc4ccc(N5CCC(F)C5)cc4[s+]c3c2)C1 (stereo not shown) [Compound 54] | 25 |  | 
CCc1cc(C(C)C)cc2[s+]c3cc(N(C)C)cc(CC)c3nc12 [Compound 60] |  | < 2500 | 
CC1C=CC(C)N1c1ccc2nc3ccc(N4C(C)C=CC4C)cc3[s+]c2c1 (stereo not shown) [Compound 61] | 25 |  | 
CCN(CC)c1cc(Br)c2nc3c(C(C)(C)C)cc(N(CC)CC)cc3[s+]c2c1 [Compound 63] |  | 2500 | 
CCc1cc(N2CCCC2)cc2[s+]c3cc(N4CCCC4)cc(C(C)C)c3nc12 [Compound 64] |  |  | 6.3
COCCN(CCOC)c1ccc2nc3c(C(C)(C)C)cc(N(CCOC)CCOC)cc3[s+]c2c1 [Compound 67] |  | < 500 | 
CCCCc1cc(N2CCCC2)cc2[s+]c3cc(N4CCCC4)ccc3nc12 [Compound 70] |  | < 2500 | 
FC(F)(F)c1cc(N2CCCC2)cc2[s+]c3cc(N4CCCC4)ccc3nc12 [Compound 71] |  | < 2500 | 
FC(F)(F)c1cc(N2CCCC2)cc2[s+]c3cc(N4CCCC4)cc(N4CCCC4)c3nc12 [Compound 75] |  | < 2500 | 
COc1cc2nc3c(N4CCCC4)cc(N4CCCC4)cc3[s+]c2cc1N1CCCC1 [Compound 76] |  | < 2500 | 
N#Cc1cc(N2CCCC2)cc2[s+]c3cc(N4CCCC4)cc(N4CCCC4)c3nc12 [Compound 78] |  | < 2500 | 
Cc1cc(N2CCCC2)cc2[s+]c3cc(N4CCCC4)ccc3nc12 [Compound 79] |  | < 12500 | 
CCc1cc(N2CCCNCC2)cc2[s+]c3cc(N4CCCC4C)cc(CC)c3nc12 (stereo not shown) [Compound 81] |  | < 2500 | 
COc1cc2nc3ccc(N4CCCC4)cc3[s+]c2cc1N1CCCC1 [Compound 84] |  | < 12500 | 
CN1CCN(c2ccc3nc4c(C(C)(C)C)cc(N5CCN(C)CC5)cc4[s+]c3c2)CC1 [Compound 85] |  | 12500 | 
Clc1cc(N2CCCC2)cc2[s+]c3cc(N4CCCC4)ccc3nc12 [Compound 86] |  | < 500 | 
CC(C)(C)c1cc(N2CCOCC2)cc2[s+]c3cc(N4CCOCC4)ccc3nc12 [Compound 88] |  | 12500 | 
CC(C)(C)c1cc(N2CCCC2)cc2[s+]c3cc(N4CCC(C(=N)N)CC4)ccc3nc12 [Compound 89] |  | 12500 | 
CC(C)(C)c1cc(N2CCC(C(=N)N)CC2)cc2[s+]c3cc(N4CCC(C(=N)N)CC4)ccc3nc12 [Compound 90] |  | 12500 | 
CC(C)(C)c1cc(N2CCC(C(=N)N)CC2)cc2[s+]c3cc(N4CCCC4)ccc3nc12 [Compound 91] |  | > 12500 | 
